In US7642362B2, “Compounds as semaphorin inhibitors” (Dainippon Sumitomo Pharma Co., Ltd., priority 2002, dated 2010):

Experiments:
[1] = Solubility of the purified compounds in solvents; format: physicochemical
[2] = target: T1, mouse semaphorin 3A (Sema3A) (Mus musculus, UniProt O08665); experiment: Suppressing action on the growth cone collapse activity of Sema3A in chick dorsal root ganglion culture; format: cell-based; details: E7 chick embryo dorsal root ganglions; compound added 1 hour before 3 units/ml mouse Sema3A; growth cone collapse rate after another 1 hour
T1 sequence (O08665 21-772): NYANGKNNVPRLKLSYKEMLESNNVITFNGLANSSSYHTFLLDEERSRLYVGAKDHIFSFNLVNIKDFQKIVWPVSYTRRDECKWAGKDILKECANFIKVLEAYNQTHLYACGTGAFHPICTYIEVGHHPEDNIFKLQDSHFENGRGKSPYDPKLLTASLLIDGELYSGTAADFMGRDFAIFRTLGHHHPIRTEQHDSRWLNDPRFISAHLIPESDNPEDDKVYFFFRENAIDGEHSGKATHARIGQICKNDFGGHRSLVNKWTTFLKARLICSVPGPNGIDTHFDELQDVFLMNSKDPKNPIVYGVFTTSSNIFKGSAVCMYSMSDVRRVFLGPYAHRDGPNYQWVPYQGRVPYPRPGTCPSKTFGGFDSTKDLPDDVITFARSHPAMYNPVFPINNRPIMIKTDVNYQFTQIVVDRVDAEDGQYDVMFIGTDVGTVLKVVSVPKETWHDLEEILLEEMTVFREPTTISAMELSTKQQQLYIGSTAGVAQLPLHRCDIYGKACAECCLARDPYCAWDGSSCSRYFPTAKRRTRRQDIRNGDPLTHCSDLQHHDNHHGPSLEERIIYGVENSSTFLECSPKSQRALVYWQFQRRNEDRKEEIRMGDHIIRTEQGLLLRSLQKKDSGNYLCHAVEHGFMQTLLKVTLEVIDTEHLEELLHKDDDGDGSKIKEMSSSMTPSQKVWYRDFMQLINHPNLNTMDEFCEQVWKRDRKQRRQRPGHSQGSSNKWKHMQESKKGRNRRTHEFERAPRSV
Source text: The growth cone collapse activity of semaphorin described above means an activity to make growth cones disappear. This activity is observed after performing the following steps: cultivating nerve cells (generally tissue explants of ganglions) for a given period of time in vitro until the extended neurites as well as the growth cones at the edge of said neurites can be observed; and then adding thereto a given concentration (e.g. about 3 unit/ml; 1 unit/ml is defined as a semaphorin concentration in which 50% of the growth cones are collapsed) of semaphorin and cultivating for another given period of time (e.g. one hour). In order to get the extended neurites and the growth cones at the edge of said neurites ready for the observation, the nerve cells are generally cultivated for 10 to 20 hours in vitro, which duration can be altered according to a nerve variant and culture conditions. When the growth cone collapse caused by semaphorin is suppressed by, for example, the addition of a compound to this experimental system at an appropriate concentration about one hour prior to the addition of semaphorin, then such compound is regarded as a semaphorin inhibitor, especially as a compound with suppressing action on the growth cone collapse activity of semaphorin.
A 96-well plate (Sumitomo Bakelite Co., Ltd.) pre-coated with polylysine was further coated with laminine (20 μg/ml of laminine, for 1 hour at room temperature). Each well was added with 100 μl of medium (F12 medium containing 10% bovine fetal serum, 20 ng/ml of NGF, 100 units/ml of penicillin and 100 μg/ml of streptomycin) which medium was then inoculated with dorsal root nerve ganglions excised from E7 (Embryonic day 7) chick embryo and cultured for 16 to 20 hours under 5% CO2 at 37° C. Subsequently, the object compounds were added to media at various concentrations and 3 units/ml of mouse semaphorin 3A (Sema3A) was added after cultivating for 1 hour. The cultures were further incubated for another 1 hour. Glutaraldehyde was quickly added therein after said 1 hour to make the final concentration 1%. The cultures were then left for 15 minutes at room temperature so that the tissue sections were fixed, and collapse rates of the growth cones were microscopically determined. IC50 values was defined as a concentration of each compound at which concentration the collapse rate C equals to(A+B)/2, wherein (A) % is the collapse rate of growth cone of the negative control group (neither compounds nor Sema3A was added); (B) % is the collapse rate of growth cone of the positive control group (compounds were not added but Sema3A was added); and (C) % is the collapse rate of growth cone of the test group (each one compound and Sema3A were added).

semaphorin = experiment: Semaphorin inhibitory activity (earlier finding of the inventors)
nerve regeneration = experiment: Nerve regeneration in vivo (earlier finding of the inventors)

Row | Structure (SMILES) | Solubility in DMSO [1] | Solubility in hexane [1] | Solubility in methanol [1] | Solubility in water [1] | IC50 [2] [nM] | Semaphorin inhibitory activity (semaphorin) | Promotion of nerve regeneration (nerve regeneration)
1 | CC(=O)C1=C2c3cc(O)c(O)cc3OCC2(C(=O)/C=C(/C)O)Cc2c1oc1cc(O)c(O)c(C(=O)O)c1c2=O (centres unmarked) [SPF-3059-40] | soluble | Insoluble | soluble | Insoluble | 233 | – | –
2 | CC12Cc3oc4cc(O)c(O)c(C(=O)O)c4c(=O)c3C(O1)C1C(=O)C3=C(OC1(C)O2)c1c(cc(O)c(O)c1C(=O)O)OC3 (centres unmarked) [SPF-3059-19] | soluble | Insoluble | soluble | Insoluble | 838 | – | –
3 | CC(=O)c1cc(-c2c(C(C)=O)cc3c(=O)c4c(C(=O)O)c(O)c(O)cc4oc3c2C(C)=O)cc(C(=O)c2c(O)cc(O)c(O)c2C(=O)O)c1O [SPF-3059-23] | soluble | Insoluble | soluble | Insoluble | 728 | – | –
4 | CC(=O)c1c(C)c(C(=O)C2COc3cc(O)c(O)c(C(=O)O)c3C2=O)cc2c(=O)c3c(C(=O)O)c(O)c(O)cc3oc12 (centres unmarked) [SPF-3059-1] | – | – | – | – | – | have semaphorin inhibitory activity | promote nerve regeneration in vivo
5 | Cc1cc(=O)c2c(o1)-c1c(c3c(c(O)c1C(=O)O)OC1(C)Cc4oc5cc(O)c(O)c(C(=O)O)c5c(=O)c4C3O1)OC2 (centres unmarked) [SPF-3059-8] | soluble | Insoluble | soluble | Insoluble | 3460 | – | –

The next lines start with results.

Row | Solubility in DMSO [1] | Solubility in hexane [1] | Solubility in methanol [1] | Solubility in water [1] | IC50 [2] [nM] | Structure (SMILES) | Semaphorin inhibitory activity (semaphorin) | Promotion of nerve regeneration (nerve regeneration)
6 | soluble | Insoluble | soluble | Insoluble | 19.9 | CC(=O)c1c2c(c3ccc4c(=O)c5c(C(=O)O)c(O)c(O)cc5oc4c3c1C)C(=O)C1(CC2)COc2cc(O)c(O)c(C(=O)O)c2C1=O (centres unmarked) [SPF-3059-38] | – | –
7 | soluble | Insoluble | soluble | Insoluble | 861 | CC(=O)[C@]12c3c(cc(O)c(O)c3C(=O)O)OC[C@]13Cc1c(oc4cc(O)c(O)c(C(=O)O)c4c1=O)[C@H]2C(C)=C(O)C3=O (relative stereo) [SPF-3059-16] | – | –
8 | soluble | Insoluble | soluble | Insoluble | 78.1 | CC(=O)c1c(C)c(-c2oc3cc(O)c(O)c(C(=O)O)c3c(=O)c2Cc2c(C)oc3c(c2=O)COc2cc(O)c(O)c(C(=O)O)c2-3)cc2c(=O)c3cc(O)c(O)cc3oc12 [SPF-3059-42] | – | –
9 | soluble | Insoluble | soluble | Insoluble | 225 | CC1=Cc2oc3cc(O)c(O)c(C(=O)O)c3c(=O)c2C(c2c(C)oc3c(c2=O)COc2cc(O)c(O)c(C(=O)O)c2-3)O1 (centres unmarked) [SPF-3059-17] | – | –
10 | soluble | Insoluble | soluble | Insoluble | 912 | CC(=O)c1c(C)c(C(=O)c2coc3cc(O)c(O)c(C(=O)O)c3c2=O)cc2c(=O)c3c(O)cc(O)c(O)c3oc12 [SPF-3059-22] | – | –
